Test results: US10363229B2, “Methods and compositions for the treatment of cancer” (priority 2009, dated 2019)

Assays:
[1] = tested on: normal lymphocytes (T-cells) from a healthy volunteer; test: Apoptosis of normal T-cell lymphocytes by Flow Cytometry; type: cell-based, human
From the text: Normal T-cell lymphocytes were obtained from a blood sample of a healthy volunteer. Blood samples were obtained with IRB approval and with the volunteer signing an Informed Consent Form. White blood cells were separated from red blood cells using a Ficoll gradient. Flow cytometry with antibodies against CD3 and CD4 was used to identify T-cell lymphocytes (Flow Cytometry Facility, University of Connecticut Health Center, Farmington, Conn.).
Blood was drawn from healthy volunteers and white blood cells (e.g., lymphocytes, neutrophils) were enriched using Ficoll-Plaque. Cells were incubated in Petri dishes containing MEM with 7% fetal calf serum in a CO2 (5%) incubator at 37° C.; Methyl sulfone was present at concentrations of 0, 3, 6, or 10%. After 20 hours, cells were incubated with antibodies specific to T-lymphocytes (CD3 and CD4 T-cells), B-lymphocytes (B-cells) and neutrophils, and the percent of apoptotic cells was determined by Flow Cytometry. This is a technique that identifies specific cell types (e.g., CD3 T-cells, CD4 T-cells, B-cells, neutrophils) within a mixed population of blood cells, and then determines whether the cells are alive or apoptotic.
After 20 hours, cells were incubated with fluorescent antibodies to identify T-cells, B-cells and neutrophils, and then processed by Flow Cytometry (FIG. 15).

[2] = tested on: melanoma cells; test: Cell proliferation, BrdU incorporation into DNA; type: cell-based, mouse; settings: 2% methyl sulfone
Description: Cells were plated onto sterile 12 mm coverslips in 35 mm tissue culture plates and incubated at 37° C., 5% CO2. After 24 hours, 2% methyl sulfone in medium or medium alone was added the plates and incubated at 37° C., 5% CO2 for 48 and 72 hrs. BrdU (Molecular Probes, Eugene, Oreg., USA; diluted ⅓ in RPMI medium) was added to each plate for 60 minutes at 37° C., 5% CO2. Coverslips were transferred to porcelain holders, washed with PBS, fixed in methanol/acetone (1:1), washed with PBS, and incubated in 5% BSA/PBS for 30 minutes at room temperature. To denature DNA, coverslips were placed in 0.1N HCL/1% Triton X-100 for 10 minutes at room temperature. After washing in PBS, cells were incubated with Alexa Fluor 488 anti-BrdU antibody (Molecular Probes, Eugene, Oreg.; diluted 1/20 in 5% BSA/PBS) for 60 minutes at room temperature. Cells were washed in PBS and incubated with Hoechst (diluted 1/1000 in PBS) in the dark at room temperature. After washing in PBS, cells were dipped in dH2O and drained onto Kim Wipes. SlowFade mounting medium (Molecular Probes, Eugene, Oreg.) was added to a glass slide and coverslips were placed face down onto slides and sealed with clear nail polish. […]

[3] = tested on: SKP2 and p27 in 66 and M3 cells; test: Immunofluorescence of SKP2 and p27 in cancer cells (Example 2); type: cell-based, mouse; settings: 2% methyl sulfone, four weeks
From the text: SKP2 is a ubiquitin ligase that is active in cell nuclei and is expressed in many types of malignant cells. SKP2 promotes cell cycling and cell proliferation and promotes the degradation of the tumor suppressor protein p27. p27 is a tumor suppressor that is active when located in cell nuclei and in a non-phosphorylated form. p27 promotes cell cycle arrest and senescence.
In normal differentiated cells, p27 (non-phosphorylated active form) is located in the nucleus. […] This was confirmed in the experiments described below. The nuclei were stained with DAPI (blue) and corresponding p27 (red) or SKP2 (red), and then merged the p27/DAPI and SKP2/DAPI photos.
Cells were plated at 1×10^5 cells/ml on 12 mm round coverslips in 35 mm tissue culture plates (final volume of media was 1.5 ml/35 mm plate). At 24 hours after plating, media was replaced with fresh media containing 2% methyl sulfone and cells were incubated in media/2% methyl sulfone for four weeks. Media/2% methyl sulfone was changed every Monday, Wednesday, and Friday Immunofluorescence was performed at four weeks after plating to look for the presence of the following proteins: SKP2 and p27 (Santa Cruz Biotechnology). […]

methyl sulfone
viability of normal lymphocytes (T-cells) ([1]; 10% methyl sulfone, 20 hours): remained viable
T-cells from the healthy volunteer induced into apoptosis ([1]; summary in the description, concentration not given): less than 10%
cells synthesizing DNA (BrdU incorporation) ([2]; 48 hours (control 14%)): 0.03%
cells synthesizing DNA (BrdU incorporation) ([2]; 72 hours (control 21%)): 0%
SKP2 level and location [3]: low levels of SKP2 in the cytoplasm
p27 expression and location [3]: high expression of p27 in the nucleus
